Paper PMC6152131, “Pharmacokinetic Study of Biotransformation Products from an Anxiolytic Fraction of Tilia americana” (Molecules : A Journal of Synthetic Chemistry and Natural …, 2017)

Key:
[1] = Plasma concentration after a single oral dose of the anxiolytic fraction (HPLC); type: in vivo, ICR mice; conditions: oral 200 mg/kg anxiolytic fraction, immediately after administration and over 24 h
Protocol: Eleven groups of ten animals each were randomly formed. All animals were orally administered with 200 mg/kg of the active fraction. Animals were anaesthetized with ether, and blood samples were obtained from the retroorbital sinus with a heparinized capillary, each group was examined at different times (0, 5, 10, 15, 30, 60, 120, 240, 480, 720, and 1440 min) after the active fraction was administered. […] Then the plasma samples were frozen and lyophilized. The dry plasma was subsequently used to extract and measure the concentration of the flavonoids and biotransformation products.
(§1) Plasma dried pulverized samples were extracted with methanol (HPLC grade, Merck). The extracts were filtered with Teflon membrane dimensions 0.45 μm by 13 mm (Millex®-LCR); 20 μL of each filtered sample was injected into the HPLC equipment. The measurements were performed in a (Waters corporation, Milford, CT, USA) 2695 HPLC with a diode array detector (Waters 2996) and processed with the Empower Pro 1.0 software. A Chromolith Performance® RP-18e 100 × 4.6 mm (Merck KGaA, Darmstadt, Germany) was used. The mobile phase consisted of a mixture of acetonitrile and water with the proportion 55:45 and a flow rate of 1 mL/min. The concentrations of the flavonoids and the biotransformation products were obtained by comparison with a pre-built calibration curve at λ = 220 nm.
To evaluate the suitability of the assay for the pharmacokinetic studies, 200 mg/kg of the active fraction was orally administered to the animals. Ten animals were used in each group at different times (0, 5, 10, 15, 30, 60, 120, 240, 480, 720, and 1440 min). Pharmacokinetic calculations were performed using the observed data. All data was subsequently processed using the PKSolver add-in program for Microsoft Excel written in Visual Basic for Applications. All values obtained were expressed in mean ± standard deviation.

[2] = Stability of flavonoids and biotransformation products in mouse plasma under different handling conditions; type: in vitro ADME, mice; conditions: for Accuracy Bias 0 h / Observed Conc. 0 h / Accuracy Bias 8 h / Observed Conc. 8 h / Accuracy Bias 24 h / Observed Conc. 24 h: room temperature (25 °C); for Observed Conc. 0 h / Observed Conc. 8 h / Observed Conc. 24 h / Observed Conc. Autosampler (4 °C; 8 h) / Observed Conc. Long-term (−70 °C; 1 month): n = 6; for Accuracy Bias Autosampler (4 °C; 8 h) / Observed Conc. Autosampler (4 °C; 8 h) / Observed Conc. Long-term (−70 °C; 1 month) / Accuracy Bias Long-term (−70°C; 1 month): storage stability
Protocol: as §1
[…] The investigation enclosed here expected manipulation conditions during all the sample storage and process periods, which included the stability data from the freeze/thaw, bench-top, autosampler, and long–term stability tests.
For all stability studies, fresh QC samples were evaluated by using a freshly prepared standard curve for the measurements. The concentrations obtained from all the stability studies were compared with the fresh QC samples, and the percentage concentration deviation was calculated. The analytes were considered stable in the mouse plasma when the concentration difference between the freshly prepared samples and the stability samples was less than 15%.

[3] = high nominal conc. (rutin 7.00; quercetin glucoside, quercitrin, tiliroside 44.37; kaempferol 4.50; m-HPAA, p-HPAA, DOPAC 31.25 µg/mL)
[4] = low nominal conc. (rutin 1.75; quercetin glucoside, quercitrin, tiliroside 11.02; kaempferol 1.12; m-HPAA, p-HPAA, DOPAC 1.95 µg/mL)
[5] = medium nominal conc. (rutin 3.50; quercetin glucoside, quercitrin, tiliroside 22.18; kaempferol 2.24; m-HPAA, p-HPAA, DOPAC 7.81 µg/mL)
[6] = high nominal conc. (7.00; 44.37; 4.50; 31.25 µg/mL)
[7] = low nominal conc. (1.75; 11.02; 1.12; 1.95 µg/mL)
[8] = medium nominal conc. (3.50; 22.18; 2.24; 7.81 µg/mL)

SMILES | flavonoids found in the plasma after oral administration [1] | Accuracy Bias 0 h ([2]; high nominal conc.) [%] | Observed Conc. 0 h [2, 3] [µg/mL] | Accuracy Bias 0 h ([2]; low nominal conc.) [%] | Observed Conc. 0 h [2, 4] [µg/mL] | Accuracy Bias 0 h ([2]; medium nominal conc.) [%] | Observed Conc. 0 h [2, 5] [µg/mL] | Accuracy Bias 8 h ([2]; high nominal conc.) [%] | Observed Conc. 8 h [2, 6] [µg/mL] | Accuracy Bias 8 h ([2]; low nominal conc.) [%] | Observed Conc. 8 h [2, 7] [µg/mL] | Accuracy Bias 8 h ([2]; medium nominal conc.) [%] | Observed Conc. 8 h [2, 8] [µg/mL] | Accuracy Bias 24 h ([2]; high nominal conc.) [%] | Accuracy Bias 24 h ([2]; low nominal conc.) [%] | Observed Conc. 24 h [2, 7] [µg/mL] | Accuracy Bias 24 h ([2]; medium nominal conc.) [%] | Observed Conc. 24 h [2, 8] [µg/mL] | Accuracy Bias Autosampler (4 °C; 8 h) ([2]; high nominal conc.) [%] | Observed Conc. Autosampler (4 °C; 8 h) [2, 6] [µg/mL] | other results
C[C@@H]1O[C@@H](Oc2c(-c3ccc(O)c(O)c3)oc3cc(O)cc(O)c3c2=O)[C@H](O)[C@H](O)[C@H]1O [Quercitrin, quercitrin] | not found | 0.56 | 44.12 ± 2.82 | −2.26 | 11.27 ± 0.75 | −3.39 | 22.94 ± 1.87 | −1.33 | 44.96 ± 1.84 | −4.83 | 11.56 ± 0.78 | −2.11 | 22.65 ± 1.85 | 1.05 | 0.30 | 10.99 ± 0.72 | −4.15 | 23.11 ± 1.89 | −0.17 | 44.44 ± 4.52 | Observed Conc. 24 h [2, 6]: 43.90 ± 1.61 µg/mL; Observed Conc. Long-term (−70 °C; 1 month) [2, 6]: 44.17 ± 2.95 µg/mL; Accuracy Bias Autosampler (4 °C; 8 h) ([2]; low nominal conc.): −5.47%; Observed Conc. Autosampler (4 °C; 8 h) [2, 7]: 11.62 ± 1.02 µg/mL; Observed Conc. Long-term (−70 °C; 1 month) [2, 7]: 11.64 ± 0.99 µg/mL; Accuracy Bias Autosampler (4 °C; 8 h) ([2]; medium nominal conc.): −2.73%; Observed Conc. Autosampler (4 °C; 8 h) [2, 8]: 22.79 ± 2.26 µg/mL; Observed Conc. Long-term (−70 °C; 1 month) [2, 8]: 22.49 ± 1.66 µg/mL
O=c1c(O[C@@H]2O[C@H](CO)[C@@H](O)[C@H](O)[C@H]2O)c(-c2ccc(O)c(O)c2)oc2cc(O)cc(O)c12 [Quercetin glucoside, quercetin glucoside] | not found | 2.86 | 43.10 ± 2.20 | −1.24 | 11.16 ± 0.27 | 5.94 | 20.86 ± 1.35 | 4.28 | 42.48 ± 1.06 | 1.62 | 10.84 ± 0.67 | 6.02 | 20.84 ± 1.24 | 6.76 | −2.98 | 11.35 ± 0.61 | 7.83 | 20.44 ± 1.65 | −1.82 | 43.30 ± 2.02 | Observed Conc. 24 h [2, 6]: 41.37 ± 1.17 µg/mL; Accuracy Bias Long-term (−70°C; 1 month) ([2]; high nominal conc.): −3.52%; Observed Conc. Long-term (−70 °C; 1 month) [2, 6]: 41.60 ± 2.26 µg/mL; Accuracy Bias Autosampler (4 °C; 8 h) ([2]; low nominal conc.): 2.40%; Accuracy Bias Long-term (−70°C; 1 month) ([2]; low nominal conc.): 6.22%; Observed Conc. Autosampler (4 °C; 8 h) [2, 7]: 11.22 ± 0.59 µg/mL; Observed Conc. Long-term (−70 °C; 1 month) [2, 7]: 11.41 ± 0.71 µg/mL; Accuracy Bias Autosampler (4 °C; 8 h) ([2]; medium nominal conc.): 5.48%; Accuracy Bias Long-term (−70°C; 1 month) ([2]; medium nominal conc.): 7.26%; Observed Conc. Autosampler (4 °C; 8 h) [2, 8]: 20.96 ± 1.31 µg/mL; Observed Conc. Long-term (−70 °C; 1 month) [2, 8]: 20.57 ± 2.06 µg/mL
O=c1c(O)c(-c2ccc(O)cc2)oc2cc(O)cc(O)c12 [Kaempferol, kaempferol] | not found | −4.64 | 4.45 ± 0.41 | −3.29 | 1.16 ± 0.099 | 0.53 | 2.24 ± 0.20 | −1.74 | 4.32 ± 0.21 | −7.28 | 1.21 ± 0.83 | 4.60 | 2.15 ± 0.19 | 1.77 | −2.28 | 1.15 ± 0.098 | −8.12 | 2.42 ± 0.22 | 1.24 | 4.19 ± 0.37 | Accuracy Bias Long-term (−70°C; 1 month) ([2]; high nominal conc.): −2.47%; Observed Conc. Long-term (−70 °C; 1 month) [2, 6]: 4.35 ± 0.39 µg/mL; Accuracy Bias Autosampler (4 °C; 8 h) ([2]; low nominal conc.): −7.77%; Accuracy Bias Long-term (−70°C; 1 month) ([2]; low nominal conc.): −2.77%; Observed Conc. Autosampler (4 °C; 8 h) [2, 7]: 1.21 ± 0.07 µg/mL; Observed Conc. Long-term (−70 °C; 1 month) [2, 7]: 1.15 ± 0.10 µg/mL; Accuracy Bias Autosampler (4 °C; 8 h) ([2]; medium nominal conc.): 0.50%; Accuracy Bias Long-term (−70°C; 1 month) ([2]; medium nominal conc.): 4.13%; Observed Conc. Autosampler (4 °C; 8 h) [2, 8]: 2.24 ± 0.20 µg/mL; Observed Conc. Long-term (−70 °C; 1 month) [2, 8]: 2.15 ± 0.19 µg/mL
